Experimental data taken from patent US20240190855A1 (Relay Therapeutics, Inc., priority 2021, published 2024).

Columns and labels:
[1] = test system: CDK2-independent (SKOV3, COV504, COV644) versus CDK2-dependent (COV318, OVCAR3, HCC1569) cell lines; test: Cell proliferation selectivity assay (CyQUANT Direct Cell Proliferation Assay); format: cell-based; details: mean of IC50 ratios between each CDK2-independent versus CDK2-dependent cell line; 120 hours incubation
Experimental: Compounds described herein were also tested in cell proliferation selectivity assays. OVCAR3, HCC1569, and SKOV3 cell lines were obtained from ATCC and cultured as recommended by supplier. COV318, COV504, and COV644 cell lines were obtained from Sigma-Aldrich and were cultured as recommended by supplier. The genetic background and dependency of each cell line was determined using publicly available databases: cBioPortal and DepMap. […] All six cell lines are CDK1-dependent given that CDK1 is an essential gene. Proliferation assay was carried out by seeding cells into 384-well plates at predetermined density (ranging from 150 to 1500 cells per well) in corresponding culture media, followed by brief centrifugation at 1000×g, and culturing cells for 24 hours at 37° C., 5% CO2. The following day, compounds were serially diluted (1l-point, 3-fold dilution scheme with 20 μM as top concentration) and dispensed directly onto cells using Echo 555 acoustic liquid handler (Labcyte). The cells were incubated with the compounds at 37° C., 5% CO2 for 120 hours. Relative number of viable cells in each well was determined using CyQUANT Direct Cell Proliferation Assay Kit (Invitrogen) per manufacturers protocol. The plates were read on EnVision 2105 multimode plate reader (Perkin Elmer) using FITC filter set. Dose response curve fitting and IC50 calculation was done using Genedata Screener software. Proliferation selectivity (i.e. selectivity index) for individual compound was derived as a mean of its IC50 ratios between each CDK2-independent versus CDK2-dependent cell line.

CDK2/Cyclin E complex = target: T1, CDK2/Cyclin E complex (Homo sapiens, UniProt P24941); test: CDK2/Cyclin E fluorescence-based microfluidic mobility shift assay (CDK2 Biochemical Caliper Assay); details: read-out: Biochemical CDK2/CyclinE Caliper IC50
T1 construct: purchased Eurofins 14-475
Procedure, shortened: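 Microfluidic mobility-shift readout after EDTA termination measured phosphorylation of fluorescent FL Peptide 18 (1.5 uM final) in a 20 hr room-temperature reaction. Compounds were tested at 11 concentrations (3-fold).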

| Compound | Proliferation selectivity Index [1] | IC50 (CDK2/Cyclin E complex) |
| --- | --- | --- |
| CC(C)NC(=O)O[C@@H]1CC[C@H](c2cc(Nc3ncnc4ncccc34)n[nH]2)C1 (single isomer, unassigned) [Example I-4] | 45.05 |  |
| COCc1cc2c(Nc3cc([C@H]4CC[C@@H](OC(=O)NC(C)C)C4)[nH]n3)nccn2n1 (single isomer, unassigned) [Example I-10] | 24.36 |  |
| CC(C)NC(=O)O[C@@H]1CC[C@H](c2cc(Nc3nccc4nccn34)n[nH]2)C1 (single isomer, unassigned) [Example I-11] | 24.26 |  |
| CC(C)NC(=O)O[C@@H]1CC[C@H](c2cc(Nc3nccn4nccc34)n[nH]2)C1 (single isomer, unassigned) [Example I-17] | 21.85 |  |
| COCc1nc2ccnc(Nc3cc([C@@H]4CC[C@H](OC(=O)NC(C)C)C4)[nH]n3)c2s1 (single isomer, unassigned) [Example I-19] | 20.52 |  |
| CC(C)NC(=O)O[C@H]1CC[C@@H](c2cc(Nc3ncnc4ncccc34)n[nH]2)C1 (single isomer, unassigned) [Example I-20] | 20.15 |  |
| Cc1cc(CC(=O)Nc2cc([C@@H]3CC[C@H](Oc4nscc4C4CC4)C3)[nH]n2)on1 (single isomer, unassigned) [Example I-21] | 19.98 |  |
| CC(C)NC(=O)O[C@@H]1CC[C@H](c2cc(Nc3ncnc4ncsc34)n[nH]2)C1 (single isomer, unassigned) [Example I-24] | 19.46 |  |
| CC(C)NC(=O)O[C@H]1CC[C@@H](c2cc(Nc3nccc4ncsc34)n[nH]2)C1 (single isomer, unassigned) [Example I-28] | 18.45 |  |
| COCc1cc2c(Nc3cc([C@H]4C[C@@H](OC(=O)N[C@@H](C)CC(F)(F)F)CO4)[nH]n3)nccn2n1 (single isomer, unassigned) [Example I-33] | 17.57 |  |
| COCc1cc2c(Nc3cc([C@H]4C[C@@H](OC(=O)N[C@]5(C)CC5(F)F)CO4)[nH]n3)nccn2n1 (single isomer, unassigned) [Example I-34] | 17.33 |  |
| Cn1nc(CO)cc1C(=O)Nc1cc([C@H]2C[C@@H](OC(=O)NC3(C)CC3)CO2)[nH]n1 [Example 902] |  | 250 to 1000 nM |
| COCc1cn2c(Nc3cc([C@@H]4C[C@@H](OC(=O)NC5(C)CC5)CO4)[nH]n3)nccc2n1 [Example 904] |  | 1000 to 100000 nM |
| COCc1cn2c(Nc3cc([C@H]4C[C@@H](OC(=O)NC5(C)CC5)CO4)[nH]n3)nccc2n1 [Example 906] |  | ≤ 100 nM |
| Cn1nc(OCC(F)F)cc1C(=O)Nc1cc([C@@H]2C[C@H](OC(=O)NC34CC(C3)C4)CO2)[nH]n1 [Example 907] |  | ≤ 100 nM |
| Cn1nc(OCC(F)(F)F)cc1C(=O)Nc1cc([C@@H]2C[C@H](OC(=O)NC34CC(C3)C4)CO2)[nH]n1 [Example 908] |  | ≤ 100 nM |
| C[C@@H](NC(=O)O[C@@H]1CO[C@H](c2cc(NC(=O)c3cc(OCC(F)F)nn3C)n[nH]2)C1)C1CC1 [Example 909] |  | ≤ 100 nM |
| C[C@@H](NC(=O)O[C@@H]1CO[C@H](c2cc(NC(=O)c3cc(OCC(F)(F)F)nn3C)n[nH]2)C1)C1CC1 [Example 910] |  | ≤ 100 nM |
| COC12CC(NC(=O)O[C@@H]3CO[C@H](c4cc(NC(=O)c5cc(COC(F)(F)F)nn5C)n[nH]4)C3)(C1)C2 [Example 911] |  | ≤ 100 nM |
| Cn1nc(COC(F)(F)F)cc1C(=O)Nc1cc([C@@H]2C[C@H](OC(=O)NC34CC(C#N)(C3)C4)CO2)[nH]n1 [Example 912] |  | ≤ 100 nM |
| COC12CC(NC(=O)O[C@H]3CO[C@@H](c4cc(NC(=O)c5cc(COC(F)(F)F)nn5C)n[nH]4)C3)(C1)C2 [Example 913] |  | ≤ 100 nM |
| Cn1nc(COC(F)(F)F)cc1C(=O)Nc1cc([C@H]2C[C@@H](OC(=O)NC34CC(C#N)(C3)C4)CO2)[nH]n1 [Example 914] |  | ≤ 100 nM |
| C[C@@H](NC(=O)O[C@H]1CO[C@@H](c2cc(NC(=O)c3cc(OCC(F)F)nn3C)n[nH]2)C1)C1CC1 [Example 915] |  | ≤ 100 nM |
| C[C@H](NC(=O)O[C@H]1CO[C@@H](c2cc(NC(=O)c3cc(OCC(F)F)nn3C)n[nH]2)C1)C1CC1 [Example 916] |  | ≤ 100 nM |

| Compound | Proliferation selectivity Index [1] | IC50 (CDK2/Cyclin E complex) |
| --- | --- | --- |
| C[C@@H](NC(=O)O[C@H]1CO[C@@H](c2cc(NC(=O)c3cc(OCC(F)(F)F)nn3C)n[nH]2)C1)C1CC1 [Example 917] |  | ≤ 100 nM |
| C[C@H](NC(=O)O[C@H]1CO[C@@H](c2cc(NC(=O)c3cc(OCC(F)(F)F)nn3C)n[nH]2)C1)C1CC1 [Example 918] |  | ≤ 100 nM |
| C[C@H](NC(=O)O[C@@H]1CO[C@H](c2cc(NC(=O)c3cc(OCC(F)F)nn3C)n[nH]2)C1)C1CC1 [Example 919] |  | ≤ 100 nM |
| C[C@H](NC(=O)O[C@@H]1CO[C@H](c2cc(NC(=O)c3cc(OCC(F)(F)F)nn3C)n[nH]2)C1)C1CC1 [Example 920] |  | ≤ 100 nM |
| COCc1cn2c(Nc3cc([C@@H]4C[C@H](OC(=O)NC5(C)CC5)CO4)[nH]n3)nccc2n1 [Example 921] |  | ≤ 100 nM |
| CC1(NC(=O)O[C@@H]2CO[C@H](c3cc(Nc4nccn5nc(COC(F)(F)F)cc45)n[nH]3)C2)CC1 [Example 922] |  | ≤ 100 nM |
| CC[C@H](C)NC(=O)O[C@H]1CO[C@@H](c2cc(Nc3ccc4c(n3)C(C)(C)NC4=O)n[nH]2)C1 [Example I-1] | 54.25 |  |
| COCc1cc2c(Nc3cc([C@H]4C[C@@H](OC(=O)N5CCC5(C)C)CO4)[nH]n3)nccn2n1 [Example I-2] | 51.61 |  |
| C[C@H](NC(=O)O[C@H]1CO[C@@H](c2cc(Nc3ccc4c(n3)C(C)(C)NC4=O)n[nH]2)C1)C1CC1 [Example I-3] | 45.44 |  |
| CC1(NC(=O)O[C@H]2CO[C@@H](c3cc(Nc4ccn5nccc5n4)n[nH]3)C2)CC1 [Example I-5] | 32.74 |  |
| C=C(C)c1ccncc1O[C@H]1CC[C@@H](c2cc(NC(=O)Cc3cc(C)no3)n[nH]2)C1 [Example I-6] | 31.48 |  |
| CC1(NC(=O)O[C@@H]2CO[C@H](c3cc(Nc4nccc5nccn45)n[nH]3)C2)CC1 [Example I-7] | 27.71 |  |
| CC1(NC(=O)O[C@H]2CO[C@@H](c3cc(Nc4ccc5nccn5n4)n[nH]3)C2)CC1 [Example I-8] | 27.56 |  |
| COCc1cc2c(Nc3cc([C@H]4C[C@@H](OC(=O)N[C@@H](C)C(F)(F)F)CO4)[nH]n3)nccn2n1 [Example I-9] | 24.63 |  |
| COCC1(NC(=O)O[C@@H]2CO[C@H](c3cc(NC(=O)c4cc(COC(F)(F)F)nn4C)n[nH]3)C2)CC1 [Example I-12] | 23.98 |  |
| C[C@H](NC(=O)O[C@@H]1CO[C@H](c2cc(NC(=O)c3cc(COC(F)(F)F)nn3C)n[nH]2)C1)C1CC1 [Example I-13] | 23.74 |  |
| Cn1ncc2cnc(Nc3cc([C@H]4C[C@@H](OC(=O)NC5(C)CC5)CO4)[nH]n3)cc21 [Example I-14] | 23.53 |  |
| COCc1cc2c(Nc3cc([C@H]4C[C@@H](OC(=O)NC5(CC(F)(F)F)CC5)CO4)[nH]n3)nccn2n1 [Example I-15] | 23.43 |  |
| COCc1nc2ccnc(Nc3cc([C@H]4C[C@@H](OC(=O)NC(C)C)CO4)[nH]n3)c2s1 [Example I-16] | 22.96 |  |
| Cn1nc(COC(F)(F)F)cc1C(=O)Nc1cc([C@@H]2C[C@H](OC(=O)NC3(C)CC3)CO2)[nH]n1 [Example I-18] | 21.63 |  |
| CC(C)NC(=O)OC[C@H]1C[C@@H](c2cc(Nc3nccc4ncsc34)n[nH]2)C1 [Example I-22] | 19.69 |  |
| COCc1cc2c(Nc3cc([C@H]4C[C@@H](OC(=O)N[C@H](C)C(F)(F)F)CO4)[nH]n3)nccn2n1 [Example I-23] | 19.67 |  |
| Cn1nc(COC(F)(F)F)cc1C(=O)Nc1cc([C@@H]2C[C@H](OC(=O)NC3(C)COC3)CO2)[nH]n1 [Example I-25] | 18.78 |  |
| COCc1cc2c(Nc3cc([C@@H]4C[C@H](Oc5nncn5C(C)(C)C)CO4)[nH]n3)nccn2n1 [Example I-26] | 18.65 |  |
